Literature values as cited in patent US10238615B2 (Bracco S.P.A., priority 2011, dated 2019).

Key:
[1] = system: euthyroid rats

Plasma level of total T3 obtained by standard therapy (20 μg T3): 196.6 ng/dL
Time of peak level in serum (synthetic T3 once administered): 2 to 3 h
Time to complete clearance from blood (synthetic T3 once administered): 12 to 24 h
Structure (SMILES): N[C@@H](Cc1cc(I)c(Oc2ccc(O)c(I)c2)c(I)c1)C(=O)O [Example T3, 3,5,3′-triiodothyronine]
Serum levels of thyreotropic hormone (TSH) [1]: significant reduction
